Results on three substances are retold here after paper PMC5538625, “Perception of root‐active CLE peptides requires CORYNE function in the phloem vasculature” (EMBO Reports, 2017).

The subject of assay [1] is bam3 mutant seedlings (primary root). As to conditions: compared with WT; ref Depuydt et al., 2013; cited from earlier work. The source says:
“6. We'd also like the authors to answer or discuss following aspects in the discussion part.” “6-1. How do you explain the insensitivity of crn to all CLE peptides? Does it control expression of CLV as well?” At this point we can only speculate on this. As we highlight in the discussion, maybe the expression of other, yet to be identified CLE receptors in the root also depends on CR ...

Assay [2] has as its system BAM3. As to conditions: ref Shinohara et al., 2012; cited from earlier work. The source says:
page 6: EMBO reports - Peer Review Process File - EMBO-2016-43535 of both. […] Or alternatively to measure mRNA level by qRT-PCR. This will at least resolve if it's transcriptional regulation or not. 3. One way to bolster their statement about CRN's BAM3 regulation would be to do a simple complementation. If authors' already generated CRN::CRN in crn mutant background, we highly recommend that the authors use this line as well. BAM3-BAM3-CITRINE construct are introduced ...

Assay [3] deals with T1, PXY extracellular domain (30–647) (Arabidopsis thaliana, UniProt Q9FII5).
T1 construct: PXY/TDR (30–647); azurocidin signal peptide (N); made in house; host or cells: Spodoptera frugiperda Sf9 insect cells (baculovirus, secreted)
T1 sequence (Q9FII5 30-647): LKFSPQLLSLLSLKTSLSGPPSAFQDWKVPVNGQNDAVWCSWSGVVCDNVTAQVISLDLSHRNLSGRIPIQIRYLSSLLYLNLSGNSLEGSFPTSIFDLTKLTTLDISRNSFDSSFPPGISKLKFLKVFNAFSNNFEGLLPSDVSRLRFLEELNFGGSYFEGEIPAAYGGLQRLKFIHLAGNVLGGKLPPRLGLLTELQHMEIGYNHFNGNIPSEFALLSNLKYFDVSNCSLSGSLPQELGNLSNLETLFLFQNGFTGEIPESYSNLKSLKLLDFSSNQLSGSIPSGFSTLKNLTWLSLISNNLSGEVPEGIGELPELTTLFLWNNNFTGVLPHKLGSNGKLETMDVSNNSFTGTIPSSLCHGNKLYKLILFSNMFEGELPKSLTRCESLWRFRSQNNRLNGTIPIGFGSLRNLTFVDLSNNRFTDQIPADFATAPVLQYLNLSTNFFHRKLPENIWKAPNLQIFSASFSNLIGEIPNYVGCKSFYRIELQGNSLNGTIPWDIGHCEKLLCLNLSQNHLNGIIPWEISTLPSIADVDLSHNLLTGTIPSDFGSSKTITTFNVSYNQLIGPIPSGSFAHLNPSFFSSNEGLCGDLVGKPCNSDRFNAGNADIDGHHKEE
As to the kind of experiment: ITC of purified PXY extracellular domain vs. CLE41/44. Conditions: binding affinity (range), isolated PXY ectodomain; range joins own value (Fig EV1B) and ref 25.

For assay [4], the system named is Arabidopsis Col-0 seedlings (primary root). As to the kind of experiment: Root growth assay, wild type (Col-0). The format is in vivo, Arabidopsis thaliana. As to conditions: 50 nM peptide, 9-day-old seedlings, primary root length, n ≥ 12. The method, then: Plant tissue culture, plant transformation, and common molecular biology procedures such as genomic DNA isolation, genotyping, sequencing, and peptide or inhibitor treatments were performed according to standard procedures as previously described 9, 19, 44, 65.
All mutant and transgenic lines were in the Arabidopsis Columbia‐0 (Col‐0) background. The following previously described mutant alleles were used throughout: brx‐2, bam3‐2, brx‐2 bam3, clv2‐1, serk1‐1 and serk1‐3, serk2‐1, serk3‐1, serk4‐1, serk5‐1 9, 47, 59, 66, 67, 68. The crn loss‐of‐function mutant allele (crn‐10) carries a single nucleotide insertion in front of the 7th codon, which leads to a frameshift and three subsequent premature stop codons after amino acid 10 52.

In assay [5] the test system is crn seedlings expressing CRN-CITRINE under control of the BAM3 promoter. The assay can be described thus: Root growth, BAM3::CRN-CITRINE in crn (protophloem-specific CRN). In kind it is in vivo, Arabidopsis thaliana. As to conditions: 50 nM peptide, 7-day-old seedlings. The source says:
Figure 3 Protophloem‐specific CRN action in the root meristem • A Expression pattern of BAM3, CLV2, and CRN‐CITRINE fusion proteins (green fluorescence) under control of their native promoters (blue fluorescence: calcofluor white cell wall staining) (confocal microscopy). Asterisks mark developing protophloem sieve element strands. • B, C Expression pattern of CRN‐CITRINE fusion protein under control of the BAM3 promoter in Col‐0 (B) or crn (C) background. Arrowhead in (C) highlights plasma membrane‐localized CRN. • D Representative 7‐day‐old crn seedlings expressing CRN‐CITRINE fusion protein under control of the BAM3 promoter grown on mock or CLE45. • E Primary root length of 7‐day‐old seedlings of indicated genotypes, grown on mock or 50 nM of selected CLE peptides. Differences as compared to ^a: Col‐0 or ^b: crn are not statistically significant unless indicated (Student's t‐test); *P < 0.05; **P < 0.01; ***P < 0.001; mean ± s.e.m. • F Expression of nuclear localized, fluorescent VENUS protein under control of the CVP2 promoter (which specifically marks developing protophloem sieve elements), 24 h after transfer from standard media to 50 nM of selected CLE peptides. Arrowheads indicate the cells closest to the tip in which CVP2 expression was still detectable. […]

Where no end group is shown, it is not given here.

Consider “CLE9: CLE9 (earlier reports) (RLVPSGPNPLHN; ends and bridges not checked; UniProt Q9FZE4 109-120, looked up)”, for which the “root response of bam3 mutants” value in assay [1] is “not suppressed in bam3 mutant plants”. In assay [2], the “binding to BAM3, in words” value is on record as “BAM3 has been shown to have a binding activity to CLE9”.
The Kd is the equilibrium constant for the complex coming apart. The substance HEVPSGPNPISN [CLE41/44] showed a Kd in assay [3] of 10 to 30 nM.
Take RKVPRGPDPIHN [CLE26, CLE26: …]: the “impact on root growth” value in assay [4] is listed as “significant, reproducible impact on root growth”. For the same substance, the “sensitivity after protophloem-specific CRN expression in crn” value in assay [5] was “restored sensitivity”.
